{
  "source": "ChEMBL document CHEMBL4270485",
  "about": "“Determination of Gymnemic Acid I as a Protein Biosynthesis Inhibitor Using Chemical Proteomics” (J Nat Prod, 2017)",
  "key": {"[1]": {"biological_target": "T1, 80S Ribosome (Homo sapiens) (UniProt P08865+P42677+P62753+P15880+P23396+P61247+P62701+P22090+P46782+P62081+P62241+P46781+P46783+P62280+P25398+P62277+P62263+P62841+P62244+P62249+P08708+P62269+P39019+P60866+P63220+P62266+P62847+P62851+P62854+P62979+P62857+P62273+P62861+P39023+P36578+P46777+Q02878+P18124+P62424+P62917+P32969+P27635+P62906+P62913+P30050+P26373+P40429+P50914+P61313+P18621+Q07020+Q02543+P84098+P46778+P35268+P62829+P62750+P83731+P61254+P61353+P46776+P46779+P47914+P62888+P62899+P62910+P49207+P42766+P18077+Q9Y3U8+P83881+P61927+P61513+P63173+P62891+P62945+P05388+P05386)", "test": "Binding affinity to 60S ribosomal protein L4 in human Hela cells lysates assessed as protein enrichment by measuring normalized heavy/light ratio at by nano-LC-ESIMS/MS analysis", "assay_type": "cell-free"}, "[2]": {"biological_target": "Elongation factor 1-delta (Homo sapiens) (UniProt P29692)", "sequence (P29692 whole entry)": "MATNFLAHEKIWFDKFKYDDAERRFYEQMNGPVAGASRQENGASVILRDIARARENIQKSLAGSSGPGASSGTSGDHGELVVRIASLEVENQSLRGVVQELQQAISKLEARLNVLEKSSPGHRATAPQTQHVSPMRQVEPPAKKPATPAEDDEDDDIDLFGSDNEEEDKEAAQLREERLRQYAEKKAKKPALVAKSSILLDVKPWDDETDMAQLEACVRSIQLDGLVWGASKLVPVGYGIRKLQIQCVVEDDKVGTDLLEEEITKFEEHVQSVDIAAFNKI", "test": "Binding affinity to elongation factor 1-delta in human Hela cells lysates assessed as protein enrichment by measuring normalized heavy/light ratio at by nano-LC-ESIMS/MS analysis", "assay_type": "cell-free"}, "[3]": {"biological_target": "T1, 80S Ribosome (Homo sapiens)", "test": "Binding affinity to 60S ribosomal protein L15 in human Hela cells lysates assessed as protein enrichment by measuring normalized heavy/light ratio at by nano-LC-ESIMS/MS analysis", "assay_type": "cell-free"}, "[4]": {"biological_target": "Rho-related GTP-binding protein RhoQ (Homo sapiens) (UniProt P17081)", "sequence (P17081 whole entry)": "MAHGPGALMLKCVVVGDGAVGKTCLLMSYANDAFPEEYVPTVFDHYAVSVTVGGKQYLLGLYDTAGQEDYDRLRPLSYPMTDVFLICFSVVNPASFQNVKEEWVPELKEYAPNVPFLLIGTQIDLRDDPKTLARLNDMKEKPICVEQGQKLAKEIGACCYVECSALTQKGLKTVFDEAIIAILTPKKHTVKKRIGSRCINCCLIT", "test": "Binding affinity to rho-related GTP-binding protein in human Hela cells lysates assessed as protein enrichment by measuring normalized heavy/light ratio at by nano-LC-ESIMS/MS analysis", "assay_type": "cell-free"}, "[5]": {"biological_target": "Glyceraldehyde-3-phosphate dehydrogenase (Homo sapiens) (UniProt P04406)", "sequence (P04406 2-335 limits assumed)": "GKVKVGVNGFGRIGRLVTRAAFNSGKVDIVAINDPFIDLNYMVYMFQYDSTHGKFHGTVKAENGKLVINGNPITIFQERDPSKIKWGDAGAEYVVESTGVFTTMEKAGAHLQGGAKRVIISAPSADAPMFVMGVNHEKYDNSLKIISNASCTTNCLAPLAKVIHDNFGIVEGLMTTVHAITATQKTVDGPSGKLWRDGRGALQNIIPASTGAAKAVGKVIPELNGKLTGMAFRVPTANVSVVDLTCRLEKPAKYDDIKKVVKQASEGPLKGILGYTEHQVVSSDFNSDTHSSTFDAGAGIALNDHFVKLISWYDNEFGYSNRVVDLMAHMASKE", "test": "Binding affinity to glyceraldehyde-3-phosphate dehydrogenase in human Hela cells lysates assessed as protein enrichment by measuring normalized heavy/light ratio at by nano-LC-ESIMS/MS analysis", "assay_type": "cell-free"}, "[6]": {"biological_target": "T1, 80S Ribosome (Homo sapiens)", "test": "Binding affinity to 40S ribosomal protein S2 in human Hela cells lysates assessed as protein enrichment by measuring normalized heavy/light ratio at by nano-LC-ESIMS/MS analysis", "assay_type": "cell-free"}, "[7]": {"biological_target": "T1, 80S Ribosome (Homo sapiens)", "test": "Binding affinity to 40S ribosomal protein S17 in human Hela cells lysates assessed as protein enrichment by measuring normalized heavy/light ratio at by nano-LC-ESIMS/MS analysis", "assay_type": "cell-free"}, "Homo sapiens": {"organism": "Homo sapiens", "test": "Binding affinity to histone H2A in human Hela cells lysates assessed as protein enrichment by measuring normalized heavy/light ratio at by nano-LC-ESIMS/MS analysis", "assay_type": "cell-free"}, "[8]": {"biological_target": "Transketolase (Homo sapiens) (UniProt P29401)", "sequence (P29401 whole entry)": "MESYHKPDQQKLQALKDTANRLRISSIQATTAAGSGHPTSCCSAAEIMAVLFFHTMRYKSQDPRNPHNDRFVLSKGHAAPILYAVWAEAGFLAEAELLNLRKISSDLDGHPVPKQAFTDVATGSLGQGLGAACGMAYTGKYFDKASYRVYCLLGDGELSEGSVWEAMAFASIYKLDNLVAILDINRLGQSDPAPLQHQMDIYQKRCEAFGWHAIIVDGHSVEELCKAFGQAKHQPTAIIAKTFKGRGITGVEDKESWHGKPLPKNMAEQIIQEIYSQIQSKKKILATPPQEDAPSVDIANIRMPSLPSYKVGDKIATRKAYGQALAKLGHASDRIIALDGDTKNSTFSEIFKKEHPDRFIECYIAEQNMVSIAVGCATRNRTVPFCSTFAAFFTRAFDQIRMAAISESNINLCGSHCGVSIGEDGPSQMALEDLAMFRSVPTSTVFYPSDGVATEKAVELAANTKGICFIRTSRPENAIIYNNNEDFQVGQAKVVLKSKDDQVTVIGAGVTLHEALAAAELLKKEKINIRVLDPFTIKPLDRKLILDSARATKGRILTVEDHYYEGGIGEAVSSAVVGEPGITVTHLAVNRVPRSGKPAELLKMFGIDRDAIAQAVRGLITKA", "test": "Binding affinity to transketolase in human Hela cells lysates assessed as protein enrichment by measuring normalized heavy/light ratio at by nano-LC-ESIMS/MS analysis", "assay_type": "cell-free"}, "[9]": {"test": "Binding affinity to brain acid soluble protein 1 in human Hela cells lysates assessed as protein enrichment by measuring normalized heavy/light ratio at by nano-LC-ESIMS/MS analysis"}, "[10]": {"biological_target": "T1, 80S Ribosome (Homo sapiens)", "test": "Binding affinity to 40S ribosomal protein S30 in human Hela cells lysates assessed as protein enrichment by measuring normalized heavy/light ratio at by nano-LC-ESIMS/MS analysis", "assay_type": "cell-free"}, "[11]": {"biological_target": "Putative annexin A2-like protein (Homo sapiens) (UniProt A6NMY6)", "sequence (A6NMY6 whole entry)": "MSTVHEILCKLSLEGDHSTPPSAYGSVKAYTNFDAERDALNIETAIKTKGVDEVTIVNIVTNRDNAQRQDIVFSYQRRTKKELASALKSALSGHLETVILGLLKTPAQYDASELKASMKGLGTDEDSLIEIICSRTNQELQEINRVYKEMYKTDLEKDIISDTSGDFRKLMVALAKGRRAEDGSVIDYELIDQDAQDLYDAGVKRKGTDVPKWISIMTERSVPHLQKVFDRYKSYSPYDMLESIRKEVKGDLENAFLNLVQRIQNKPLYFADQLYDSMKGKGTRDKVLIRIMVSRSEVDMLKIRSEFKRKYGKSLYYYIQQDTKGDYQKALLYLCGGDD", "test": "Binding affinity to putative annexin A2-like protein in human Hela cells lysates assessed as protein enrichment by measuring normalized heavy/light ratio at by nano-LC-ESIMS/MS analysis", "assay_type": "cell-free"}, "[12]": {"biological_target": "Elongation factor 1-alpha 1 (Homo sapiens) (UniProt P68104)", "sequence (P68104 whole entry)": "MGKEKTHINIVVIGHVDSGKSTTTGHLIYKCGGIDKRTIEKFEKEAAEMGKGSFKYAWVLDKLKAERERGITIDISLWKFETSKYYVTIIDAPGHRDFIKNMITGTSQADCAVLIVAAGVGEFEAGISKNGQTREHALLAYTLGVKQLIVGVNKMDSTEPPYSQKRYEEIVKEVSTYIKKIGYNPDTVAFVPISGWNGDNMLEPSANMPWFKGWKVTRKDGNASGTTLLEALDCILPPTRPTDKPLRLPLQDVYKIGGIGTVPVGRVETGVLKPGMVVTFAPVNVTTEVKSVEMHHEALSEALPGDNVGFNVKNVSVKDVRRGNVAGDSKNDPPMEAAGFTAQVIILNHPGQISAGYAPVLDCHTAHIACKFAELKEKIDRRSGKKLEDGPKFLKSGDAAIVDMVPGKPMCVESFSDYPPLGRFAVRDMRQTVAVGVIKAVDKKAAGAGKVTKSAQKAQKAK", "test": "Binding affinity to elongation factor 1-alpha 1 in human Hela cells lysates assessed as protein enrichment by measuring normalized heavy/light ratio at by nano-LC-ESIMS/MS analysis", "assay_type": "cell-free"}, "[13]": {"biological_target": "T1, 80S Ribosome (Homo sapiens)", "test": "Binding affinity to 40S ribosomal protein S3 in human Hela cells lysates assessed as protein enrichment by measuring normalized heavy/light ratio at by nano-LC-ESIMS/MS analysis", "assay_type": "cell-free"}, "[14]": {"biological_target": "Tubulin alpha-1B chain (Homo sapiens) (UniProt P68363)", "sequence (P68363 whole entry, looked up)": "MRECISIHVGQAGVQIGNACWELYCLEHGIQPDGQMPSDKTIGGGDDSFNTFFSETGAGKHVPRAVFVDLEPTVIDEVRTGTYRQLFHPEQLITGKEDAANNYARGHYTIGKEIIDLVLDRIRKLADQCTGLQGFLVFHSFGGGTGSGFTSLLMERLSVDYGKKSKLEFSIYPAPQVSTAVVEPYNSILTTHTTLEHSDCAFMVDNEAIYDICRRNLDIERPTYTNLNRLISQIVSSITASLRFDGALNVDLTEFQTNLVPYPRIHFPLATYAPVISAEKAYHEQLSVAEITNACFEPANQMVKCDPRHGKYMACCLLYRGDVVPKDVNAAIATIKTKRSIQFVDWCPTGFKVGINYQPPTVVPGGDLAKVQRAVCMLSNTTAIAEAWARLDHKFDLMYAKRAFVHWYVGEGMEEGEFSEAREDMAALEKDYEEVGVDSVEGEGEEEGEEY", "test": "Binding affinity to tubulin alpha-1B chain in human Hela cells lysates assessed as protein enrichment by measuring normalized heavy/light ratio at by nano-LC-ESIMS/MS analysis", "assay_type": "cell-free"}, "[15]": {"biological_target": "Ras-related protein Rab-7a (Homo sapiens) (UniProt P51149)", "sequence (P51149 whole entry)": "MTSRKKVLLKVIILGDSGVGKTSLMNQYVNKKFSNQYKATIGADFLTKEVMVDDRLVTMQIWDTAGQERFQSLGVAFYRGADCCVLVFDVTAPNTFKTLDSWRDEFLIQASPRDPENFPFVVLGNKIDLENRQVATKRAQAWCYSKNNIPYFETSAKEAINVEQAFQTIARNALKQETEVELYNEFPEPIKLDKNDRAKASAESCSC", "test": "Binding affinity to ras-related protein rab-7a in human Hela cells lysates assessed as protein enrichment by measuring normalized heavy/light ratio at by nano-LC-ESIMS/MS analysis", "assay_type": "cell-free"}, "[16]": {"biological_target": "Small ribosomal subunit protein eS6 (Homo sapiens) (UniProt P62753)", "test": "Binding affinity to 40S ribosomal protein S6 in human Hela cells lysates assessed as protein enrichment by measuring normalized heavy/light ratio at by nano-LC-ESIMS/MS analysis", "assay_type": "cell-free"}, "[17]": {"biological_target": "Endoplasmic reticulum chaperone BiP (Homo sapiens) (UniProt P11021)", "sequence (P11021 whole entry)": "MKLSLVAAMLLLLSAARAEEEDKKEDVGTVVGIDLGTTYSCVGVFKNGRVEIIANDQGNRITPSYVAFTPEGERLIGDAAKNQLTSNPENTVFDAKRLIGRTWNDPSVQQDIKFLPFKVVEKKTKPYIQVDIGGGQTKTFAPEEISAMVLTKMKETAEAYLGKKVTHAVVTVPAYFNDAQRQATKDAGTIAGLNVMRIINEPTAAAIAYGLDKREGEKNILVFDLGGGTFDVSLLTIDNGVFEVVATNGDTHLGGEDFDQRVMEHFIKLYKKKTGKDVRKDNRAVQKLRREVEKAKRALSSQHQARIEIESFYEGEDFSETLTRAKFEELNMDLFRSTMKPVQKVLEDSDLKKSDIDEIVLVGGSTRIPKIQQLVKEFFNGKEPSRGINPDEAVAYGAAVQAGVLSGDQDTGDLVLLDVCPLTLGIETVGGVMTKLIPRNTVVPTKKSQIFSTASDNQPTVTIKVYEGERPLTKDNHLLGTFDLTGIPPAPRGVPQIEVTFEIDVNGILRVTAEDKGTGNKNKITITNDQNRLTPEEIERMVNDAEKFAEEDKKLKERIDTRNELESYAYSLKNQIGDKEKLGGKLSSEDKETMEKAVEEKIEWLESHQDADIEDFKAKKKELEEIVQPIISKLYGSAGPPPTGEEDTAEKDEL", "test": "Binding affinity to 78 kDa glucose-regulated protein in human Hela cells lysates assessed as protein enrichment by measuring normalized heavy/light ratio at by nano-LC-ESIMS/MS analysis", "assay_type": "cell-free"}, "[18]": {"biological_target": "T1, 80S Ribosome (Homo sapiens)", "test": "Binding affinity to 60S ribosomal protein L10 in human Hela cells lysates assessed as protein enrichment by measuring normalized heavy/light ratio at by nano-LC-ESIMS/MS analysis", "assay_type": "cell-free"}, "[19]": {"biological_target": "Phosphoglycerate kinase 1 (Homo sapiens) (UniProt P00558)", "sequence (P00558 whole entry)": "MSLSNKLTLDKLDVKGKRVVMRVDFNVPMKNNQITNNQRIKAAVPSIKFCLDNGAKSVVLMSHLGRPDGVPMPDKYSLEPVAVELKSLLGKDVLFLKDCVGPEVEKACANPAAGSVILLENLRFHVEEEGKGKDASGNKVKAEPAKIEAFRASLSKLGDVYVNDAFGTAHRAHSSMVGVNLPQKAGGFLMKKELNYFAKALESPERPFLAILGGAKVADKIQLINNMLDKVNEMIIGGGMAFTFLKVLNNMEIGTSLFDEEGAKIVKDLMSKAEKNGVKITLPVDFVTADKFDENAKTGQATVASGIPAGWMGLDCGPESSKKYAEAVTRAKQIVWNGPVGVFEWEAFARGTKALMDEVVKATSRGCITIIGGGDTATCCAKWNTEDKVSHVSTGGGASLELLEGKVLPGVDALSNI", "test": "Binding affinity to phosphoglycerate kinase 1 in human Hela cells lysates assessed as protein enrichment by measuring normalized heavy/light ratio at by nano-LC-ESIMS/MS analysis", "assay_type": "cell-free"}, "[20]": {"biological_target": "T1, 80S Ribosome (Homo sapiens)", "test": "Binding affinity to 60S ribosomal protein L31 in human Hela cells lysates assessed as protein enrichment by measuring normalized heavy/light ratio at by nano-LC-ESIMS/MS analysis", "assay_type": "cell-free"}, "[21]": {"biological_target": "D-3-phosphoglycerate dehydrogenase (Homo sapiens) (UniProt O43175)", "sequence (O43175 whole entry)": "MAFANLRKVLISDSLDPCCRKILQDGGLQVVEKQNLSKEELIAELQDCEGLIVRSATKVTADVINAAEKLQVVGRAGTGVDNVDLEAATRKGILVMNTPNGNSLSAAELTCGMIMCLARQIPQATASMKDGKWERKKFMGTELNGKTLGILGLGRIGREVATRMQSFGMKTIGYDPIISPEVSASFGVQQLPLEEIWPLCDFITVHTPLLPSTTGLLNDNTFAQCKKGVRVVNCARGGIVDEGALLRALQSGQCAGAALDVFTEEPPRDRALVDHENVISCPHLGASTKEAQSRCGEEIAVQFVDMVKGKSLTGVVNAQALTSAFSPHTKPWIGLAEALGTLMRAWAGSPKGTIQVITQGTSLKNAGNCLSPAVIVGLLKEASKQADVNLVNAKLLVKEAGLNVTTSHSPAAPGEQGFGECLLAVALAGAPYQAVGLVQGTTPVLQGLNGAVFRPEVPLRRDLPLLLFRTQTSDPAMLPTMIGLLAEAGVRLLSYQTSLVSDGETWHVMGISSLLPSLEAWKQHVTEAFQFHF", "test": "Binding affinity to D3-phosphoglycerate dehydrogenase in human Hela cells lysates assessed as protein enrichment by measuring normalized heavy/light ratio at by nano-LC-ESIMS/MS analysis", "assay_type": "cell-free"}, "[22]": {"biological_target": "Actin, cytoplasmic 1 (Homo sapiens) (UniProt P60709)", "test": "Binding affinity to actin, Cytoplasmic1 in human Hela cells lysates assessed as protein enrichment by measuring normalized heavy/light ratio at by nano-LC-ESIMS/MS analysis", "assay_type": "cell-free"}, "[23]": {"biological_target": "14-3-3 protein zeta/delta (Homo sapiens) (UniProt P63104)", "sequence (P63104 whole entry)": "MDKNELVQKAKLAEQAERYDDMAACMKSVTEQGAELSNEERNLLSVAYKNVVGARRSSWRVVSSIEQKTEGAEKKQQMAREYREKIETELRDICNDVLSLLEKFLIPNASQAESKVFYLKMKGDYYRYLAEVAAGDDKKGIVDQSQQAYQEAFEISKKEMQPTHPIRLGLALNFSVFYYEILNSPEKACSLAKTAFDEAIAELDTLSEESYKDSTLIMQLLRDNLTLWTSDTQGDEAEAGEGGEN", "test": "Binding affinity to […] zeta/delta in human Hela cells lysates assessed as protein enrichment by measuring normalized heavy/light ratio at by nano-LC-ESIMS/MS analysis", "assay_type": "cell-free"}, "[24]": {"biological_target": "Elongation factor 2 (Homo sapiens) (UniProt P13639)", "test": "Binding affinity to eukaryotic translation initiation factor in human Hela cells lysates assessed as protein enrichment by measuring normalized heavy/light ratio at by nano-LC-ESIMS/MS analysis", "assay_type": "cell-free"}},
  "data": [
    {"compound": "C/C=C(\\C)C(=O)O[C@H]1[C@H](O)[C@]2(COC(C)=O)[C@@H](O)C[C@]3(C)C(=CC[C@@H]4[C@@]5(C)CC[C@H](O[C@@H]6O[C@H](C(=O)O)[C@@H](O)[C@H](O)[C@H]6O)[C@@](C)(CO)[C@@H]5CC[C@]43C)[C@@H]2CC1(C)C", "values": [
      {"measurement": "Ratio", "setting": "[1]", "result": 0.396},
      {"measurement": "Ratio", "setting": "[2]", "result": 0.622},
      {"measurement": "Ratio", "setting": "[3]", "result": 0.818},
      {"measurement": "Ratio", "setting": "[4]", "result": 0.706},
      {"measurement": "Ratio", "setting": "[5]", "result": 0.524},
      {"measurement": "Ratio", "setting": "[6]", "result": 0.114},
      {"measurement": "Ratio", "setting": "[7]", "result": 0.069},
      {"measurement": "Ratio", "setting": "Homo sapiens", "result": 0.509},
      {"measurement": "Ratio", "setting": "[8]", "result": 0.623},
      {"measurement": "Ratio", "setting": "[9]", "result": 0.744},
      {"measurement": "Ratio", "setting": "[10]", "result": 0.075},
      {"measurement": "Ratio", "setting": "[11]", "result": 0.988},
      {"measurement": "Ratio", "setting": "[12]", "result": 0.629},
      {"measurement": "Ratio", "setting": "[13]", "result": 0.269},
      {"measurement": "Ratio", "setting": "[14]", "result": 0.523},
      {"measurement": "Ratio", "setting": "[15]", "result": 0.568},
      {"measurement": "Ratio", "setting": "[16]", "result": 0.317},
      {"measurement": "Ratio", "setting": "[17]", "result": 0.527},
      {"measurement": "Ratio", "setting": "[18]", "result": 0.105},
      {"measurement": "Ratio", "setting": "[19]", "result": 0.665},
      {"measurement": "Ratio", "setting": "[20]", "result": 0.439},
      {"measurement": "Ratio", "setting": "[21]", "result": 0.509},
      {"measurement": "Ratio", "setting": "[22]", "result": 0.436},
      {"measurement": "Ratio", "setting": "[23]", "result": 0.62},
      {"measurement": "Ratio", "setting": "[24]", "result": 0.795}
    ]}
  ]
}
